Test results: patent publication US9526713B2, “Use of dencichine in preparation of drug for treating thrombocytopenia” (KUNMING SHENGHUO PHARMACEUTICAL (GROUP) CO., LTD., priority 2013, dated 2016)
Like-named read-outs stand apart in the source and are kept apart here.

How the values were obtained:
[1] = Body weight of rats suffering thrombopenia induced by carboplatin; assay type: in vivo, Wistar rats
Description: (§1) 81 rats are prepared and randomly divided into eight groups: • blank control group, • high-dose group A (4 mg/kg, intraperitoneal injection, non modeling), • model group (40 mg/kg, tail vein injection), • interleukin-11 group (260 μg/kg, subcutaneous injection), • high dose group B (4 mg/kg, intraperitoneal injection, modeling), • high dose group (4 mg/kg, intraperitoneal injection), • middle dose group (1 mg/kg, intraperitoneal injection), and • low dose group (0.25 mg/kg, intraperitoneal injection),
wherein, the Model group has 11 rats, and the other groups has 10 rats respectively. Before the experiment, the animals are asked to adapt the environment for 2 days, and then blood is taken from their tails for detecting hematological index.
After administration for 10 days, blood is taken from tails of rats from blank control group, high-dose group A, and positive drug group respectively for detecting hematological index.
(§2) Thereafter, all animals, except for those of blank group and high-dose group A, are individually injected with carboplatin (40 mg/kg) for modeling, and followed by successive administration for 15 days. During these 15 days, the rats of high-dose group A and high dose group B are stopped from administration, and taken blood from the tail on 5th day, 10th day and 15th day after the modeling respectively for detecting hematological indices. After 15th day of modeling, carboplatin (40 mg/kg) is injected again for a second modeling, and all the groups take successive administration according to the foregoing method, once a day for successive 10 days. Before each hematological indices detection, animals are weighed respectively. Taking the tails' blood of rats on 5th day after the second injection of carboplatin for detecting hematological indices, and taking the tails' blood of rats on 10th day after the second injection of carboplatin for detecting the indices of hematology, reticulocytes and coagulation; and weighing animals and killing them; and weighing liver, thymus, spleen and adrenal gland taken from the dead rats, and calculating out viscera indices; further taking out marrow for doing pathological examination.

[2] = assay type: in vivo, BALB/C mice
Description: (§3) Health BALB/C mice (body weight 18˜22 g) are randomly divided into six groups with 12 mice for each group:
(§4) Except the normal group, the mice of the remain five groups are injected with anti-mouse platelet serum (APS) of the guinea pig with a dose of 100 μl/20 g body weight, via intraperitoneal injection, on the 1st, 3rd, 5th, 7th, 9th, 11th and 13th day of the experiment.
The mice of each group are given intragastric administration from the first day. […] The mice of the prednisone acetate group are given intragastric administration of suspension of prednisone acetate at 5 mg/(kg·d). The mice of other groups are given intragastric administration of same volumetric of normal saline at 0.2 ml/20 g body weight. Intragastric administration for once each day, and continuous administration for 14 days.
The weights of mice of each group are respectively measured before modeling, on 7th test day, and on 14th test day.

ITP model mice = assay type: in vivo, BALB/C mice
Description: as §3, §4
The mice of each group are given intragastric administration from the first day. The mice of the dencichine high dose, middle-dose and low dose groups are given intragastric administration at […] respectively. The mice of the prednisone acetate group are given intragastric administration of suspension of prednisone acetate at 5 mg/(kg·d). The mice of other groups are given intragastric administration of same volumetric of normal saline at 0.2 ml/20 g body weight. Intragastric administration for once each day, and continuous administration for 14 days.
20 μl Blood was collected from orbital veins of each mouse of each group before Modeling and on 14th test day respectively, and dropped into anticoagulative tubes, then platelet count was detected by an automated blood analyzers.

[3] = Organ index of rats suffering thrombopenia induced by carboplatin; assay type: in vivo, Wistar rats
Description: as §1, §2

[4] = high dose group A, 4 mg/kg i.p., non modeling
[5] = high dose group B, 4 mg/kg i.p., prophylactic, modeling
[6] = low dose group, 0.25 mg/kg i.p.
[7] = middle dose group, 1 mg/kg i.p.

## N[C@@H](CNC(=O)C(=O)O)C(=O)O [Dencichine, β-N-oxalyl-L-α, β-diaminopropionic acid]
[1]; [4]
  body weight gain compared with control group: slower body weight gain
[1]; high dose group A, 4 mg/kg i.p., non modeling, 5th day after first injection of carboplatin
  body weight: 303.5 ± 17.17 g
[1]; high dose group A, 4 mg/kg i.p., non modeling, 5th day after second injection of carboplatin
  body weight: 360.7 ± 24.05 g
[1]; high dose group A, 4 mg/kg i.p., non modeling, 10th day after first injection of carboplatin
  body weight: 315.0 ± 17.29 g
[1]; high dose group A, 4 mg/kg i.p., non modeling, 10th day after second injection of carboplatin
  body weight: 362.8 ± 28.63 g
[1]; high dose group A, 4 mg/kg i.p., non modeling, 15th day after first injection of carboplatin
  body weight: 342.5 ± 19.93 g
[1]; high dose group A, 4 mg/kg i.p., non modeling, before experiment
  body weight: 187.5 ± 7.37 g
[1]; high dose group A, 4 mg/kg i.p., non modeling, prophylactic administration for 10 days
  body weight: 281.1 ± 13.19 g
[1]; high dose group B, 4 mg/kg i.p., prophylactic, modeling, 5th day after first injection of carboplatin
  body weight: 289.9 ± 18.16 g
[1]; high dose group B, 4 mg/kg i.p., prophylactic, modeling, 5th day after second injection of carboplatin
  body weight: 317.8 ± 25.87 g
[1]; high dose group B, 4 mg/kg i.p., prophylactic, modeling, 10th day after first injection of carboplatin
  body weight: 308.2 ± 16.69 g
[1]; high dose group B, 4 mg/kg i.p., prophylactic, modeling, 10th day after second injection of carboplatin
  body weight: 314.7 ± 28.71 g
[1]; high dose group B, 4 mg/kg i.p., prophylactic, modeling, 15th day after first injection of carboplatin
  body weight: 318.7 ± 17.76 g
[1]; high dose group B, 4 mg/kg i.p., prophylactic, modeling, before experiment
  body weight: 187.6 ± 9.46 g
[1]; high dose group B, 4 mg/kg i.p., prophylactic, modeling, prophylactic administration for 10 days
  body weight: 284.7 ± 15.43 g
[1]; high dose group, 4 mg/kg i.p., 5th day after first injection of carboplatin
  body weight: 298.8 ± 24.10 g
[1]; high dose group, 4 mg/kg i.p., 5th day after second injection of carboplatin
  body weight: 324.6 ± 23.20 g
[1]; high dose group, 4 mg/kg i.p., 10th day after first injection of carboplatin
  body weight: 314.0 ± 27.14 g
[1]; high dose group, 4 mg/kg i.p., 10th day after second injection of carboplatin
  body weight: 316.6 ± 15.35 g
[1]; high dose group, 4 mg/kg i.p., 15th day after first injection of carboplatin
  body weight: 341.8 ± 32.01 g
[1]; high dose group, 4 mg/kg i.p., before experiment
  body weight: 188.8 ± 9.64 g
[1]; high dose group, 4 mg/kg i.p., prophylactic administration for 10 days
  body weight: 285.8 ± 20.94 g
[1]; low dose group, 0.25 mg/kg i.p., 5th day after first injection of carboplatin
  body weight: 302.6 g
[1]; low dose group, 0.25 mg/kg i.p., 5th day after second injection of carboplatin
  body weight: 325.9 g
[1]; low dose group, 0.25 mg/kg i.p., 10th day after first injection of carboplatin
  body weight: 317.2 g
[1]; low dose group, 0.25 mg/kg i.p., 10th day after second injection of carboplatin
  body weight: 325.2 g
[1]; low dose group, 0.25 mg/kg i.p., 15th day after first injection of carboplatin
  body weight: 343.2 g
[1]; low dose group, 0.25 mg/kg i.p., before experiment
  body weight: 189.6 g
[1]; low dose group, 0.25 mg/kg i.p., prophylactic administration for 10 days
  body weight: 288.7 g
[1]; middle dose group, 1 mg/kg i.p., 5th day after first injection of carboplatin
  body weight: 291.5 ± 26.18 g
[1]; middle dose group, 1 mg/kg i.p., 5th day after second injection of carboplatin
  body weight: 328.0 ± 33.38 g
[1]; middle dose group, 1 mg/kg i.p., 10th day after first injection of carboplatin
  body weight: 315.0 ± 19.28 g
[1]; middle dose group, 1 mg/kg i.p., 10th day after second injection of carboplatin
  body weight: 334.0 ± 28.15 g
[1]; middle dose group, 1 mg/kg i.p., 15th day after first injection of carboplatin
  body weight: 329.8 ± 23.77 g
[1]; middle dose group, 1 mg/kg i.p., before experiment
  body weight: 186.2 ± 11.31 g
[1]; middle dose group, 1 mg/kg i.p., prophylactic administration for 10 days
  body weight: 282.8 ± 17.29 g
[2]; high dose group (6 mg/kg per Table 8) intragastric, Day 0
  body weight: 19.5 ± 1.5 g
[2]; high dose group (6 mg/kg per Table 8) intragastric, Day 7
  body weight: 19.8 ± 1.4 g
[2]; high dose group (6 mg/kg per Table 8) intragastric, Day 14
  body weight: 20.3 ± 1.8 g
[2]; low dose group (1.5 mg/kg per Table 8) intragastric, Day 0
  body weight: 20.2 ± 2.0 g
[2]; low dose group (1.5 mg/kg per Table 8) intragastric, Day 7
  body weight: 20.4 ± 1.5 g
[2]; low dose group (1.5 mg/kg per Table 8) intragastric, Day 14
  body weight: 21.1 ± 1.6 g
[2]; middle dose group (3 mg/kg) intragastric, Day 0
  body weight: 19.9 ± 1.9 g
[2]; middle dose group (3 mg/kg) intragastric, Day 7
  body weight: 20.1 ± 1.7 g
[2]; middle dose group (3 mg/kg) intragastric, Day 14
  body weight: 20.8 ± 1.7 g
ITP model mice; high dose 6 mg/kg intragastric, Before Modeling
  platelet count: 751.4 ± 114.3 ×10^9/L
ITP model mice; high dose 6 mg/kg intragastric, Day 14
  platelet count: 542.1 ± 95.4 ×10^9/L
ITP model mice; low dose 1.5 mg/kg intragastric, Before Modeling
  platelet count: 745.1 ± 139.6 ×10^9/L
ITP model mice; low dose 1.5 mg/kg intragastric, Day 14
  platelet count: 428.2 ± 75.1 ×10^9/L
ITP model mice; middle dose 3 mg/kg intragastric, Before Modeling
  platelet count: 749.2 ± 147.5 ×10^9/L
ITP model mice; middle dose 3 mg/kg intragastric, Day 14
  platelet count: 484.8 ± 78.4 ×10^9/L
[3]; [4]
  organ index, Adrenal gland: 0.03 ± 0.004 g/100 g body weight
  organ index, Liver: 3.33 ± 0.22 g/100 g body weight
  organ index, Spleen: 0.28 ± 0.05 g/100 g body weight
  organ index, Thymus gland: 0.18 ± 0.08 g/100 g body weight
[3]; [5]
  organ index, Adrenal gland: 0.03 ± 0.01 g/100 g body weight
  organ index, Liver: 3.70 ± 0.31 g/100 g body weight
  organ index, Spleen: 0.36 ± 0.10 g/100 g body weight
  organ index, Thymus gland: 0.10 ± 0.03 g/100 g body weight
[3]; high dose group, 4 mg/kg i.p.
  organ index, Adrenal gland: 0.03 ± 0.004 g/100 g body weight
  organ index, Liver: 3.61 ± 0.46 g/100 g body weight
  organ index, Spleen: 0.32 ± 0.11 g/100 g body weight
  organ index, Thymus gland: 0.11 ± 0.02 g/100 g body weight
[3]; [6]
  organ index, Adrenal gland: 0.03 ± 0.004 g/100 g body weight
  organ index, Liver: 3.71 ± 0.21 g/100 g body weight
  organ index, Spleen: 0.35 ± 0.06 g/100 g body weight
  organ index, Thymus gland: 0.11 ± 0.02 g/100 g body weight
[3]; [7]
  organ index, Adrenal gland: 0.03 ± 0.01 g/100 g body weight
  organ index, Liver: 3.50 ± 0.52 g/100 g body weight
  organ index, Spleen: 0.32 ± 0.10 g/100 g body weight
  organ index, Thymus gland: 0.09 ± 0.04 g/100 g body weight
